The source made the active and inactive calls. No rule for the calls is given here.
Tested on: rodent carcinogenicity bioassays, tumor incidence
Test: CCRIS carcinogenicity studies
Summary of the method: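 NCI-built, expert-reviewed records of carcinogenicity and related test outcomes (mutagenicity, tumor promotion/inhibition) compiled from published and report sources, historical span 1985-2011, not updated.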

CC1(C)C(C(=O)OC(C#N)c2cccc(Oc3ccccc3)c2)C1(C)C (centres undefined)
carcinogen call (Species: Mouse, Strain/Sex: CD-1/Female (52/Group), Dose: 0, 40, 150, 600 ppm of 91.4 - 92.5 % fenpropathrin in diet for 2 yr, study duration 2 yr, Dose: 0, 40, 150, 600 ppm of 91.4 - 92.5 % fenpropathrin in diet for 2 yr, study duration 2 yr): inactive; negative | carcinogen call (Species: Mouse, Strain/Sex: CD-1/Male (52/Group), Dose: 0, 40, 150, 600 ppm of 91.4 - 92.5 % fenpropathrin in diet for 2 yr, study duration 2 yr, Dose: 0, 40, 150, 600 ppm of 91.4 - 92.5 % fenpropathrin in diet for 2 yr, study duration 2 yr): inactive; negative | carcinogen call (Species: Rat, Strain/Sex: CD/Female (50/Group), Route: Oral, Dose: 0, 50, 150, 450 ppm of 91.4-92.5% fenpropathrin in diet for >52 wk, study duration up to 2 yr, Dose: 0, 50, 150, 450 ppm of 91.4-92.5% fenpropathrin in diet for >52 wk, study duration up to 2 yr): inactive; negative | carcinogen call (Species: Rat, Strain/Sex: CD/Male (50/Group), Route: Oral, Dose: 0, 50, 150, 450 ppm of 91.4-92.5% fenpropathrin in diet for >52 wk, study duration up to 2 yr, Dose: 0, 50, 150, 450 ppm of 91.4-92.5% fenpropathrin in diet for >52 wk, study duration up to 2 yr): inactive; negative

COCCOC1=C(N2CC2)C(=O)C(OCCOC)=C(N2CC2)C1=O
carcinogen call (Species: MOUSE, Route: INTRAPERITONEAL, Tumor Site: Type of Lesion: LUNG): active; positive

CCSC(C)CC1CC(=O)C(/C(CC)=N/OC/C=C/Cl)=C(O)C1 (centres undefined)
carcinogen call (Species: Mouse, Strain/Sex: ???/Female (50/group), Route: Oral, Dose: 0, 20, 200, 1,000, 2,000 ppm increased to 3,000 ppm after 15th wk in diet for 78 wk, Dose: 0, 20, 200, 1,000, 2,000 ppm increased to 3,000 ppm after 15th wk in diet for 78 wk): inactive; negative (study details not given in source; purity 83.3%) | carcinogen call (Species: Mouse, Strain/Sex: ???/Male (50/group), Route: Oral, Dose: 0, 20, 200, 1,000, 2,000 ppm increased to 3,000 ppm after 15th wk in diet for 78 wk, Dose: 0, 20, 200, 1,000, 2,000 ppm increased to 3,000 ppm after 15th wk in diet for 78 wk): inactive; negative (study details not given in source; purity 83.3%)

Cn1c(=O)c2c(ncn2C)n(C)c1=O
carcinogen call (Species: RAT, Strain/Sex: SPRAGUE-DAWLEY/FEMALE, Route: ORAL, Dose: 0, 200, 430, 930, 2000 MG/L IN DRINKING WATER FOR 24 MO (STUDY DURATION: 2 YR), Dose: 0, 200, 430, 930, 2000 MG/L IN DRINKING WATER FOR 24 MO (STUDY DURATION: 2 YR)): inactive; negative | carcinogen call (Species: RAT, Strain/Sex: SPRAGUE-DAWLEY/MALE, Route: ORAL, Dose: 0, 200, 430, 930, 2000 MG/L IN DRINKING WATER FOR 24 MO (STUDY DURATION: 2 YR), Dose: 0, 200, 430, 930, 2000 MG/L IN DRINKING WATER FOR 24 MO (STUDY DURATION: 2 YR)): inactive; negative | carcinogen call (Species: RAT, Strain/Sex: WISTAR/MALE,FEMALE, Route: ORAL, Dose: 0, 0.1, 0.2% SOLN. IN DRINKING WATER FOR 78 WK, Dose: 0, 0.1, 0.2% SOLN. IN DRINKING WATER FOR 78 WK): inactive; negative

c1ccc2cc3c4ccccc4c4ccccc4c3cc2c1
carcinogen call (Species: MOUSE, Strain/Sex: B6C3F1/MALE, Route: INTRAPERITONEAL, Dose: 0, 400 NMOL IN 35 µL DMSO ON DAYS 1 (1/7 TOTAL DOSE), 8 (2/7 TOTAL DOSE), AND 15 (4/7 TOTAL DOSE) AFTER BIRTH (STUDY DUR): inactive; negative

CC(COc1ccccc1)N(CCCl)Cc1ccccc1 (centres undefined)
carcinogen call (Species: MOUSE, Strain/Sex: B6C3F1/FEMALE, Route: INTRAPERITONEAL, Dose: 0, 12.5, 25 MG/KG 3/WK FOR 50 OR 52 WK, Dose: 0, 12.5, 25 MG/KG 3/WK FOR 50 OR 52 WK, Tumor Site: Type of Lesion: PERITONEAL CAVITY: SARCOMA): active; positive | carcinogen call (Species: MOUSE, Strain/Sex: B6C3F1/MALE, Route: INTRAPERITONEAL, Dose: 0, 12.5, 25 MG/KG 3/WK FOR 50 OR 52 WK, Dose: 0, 12.5, 25 MG/KG 3/WK FOR 50 OR 52 WK, Tumor Site: Type of Lesion: PERITONEAL CAVITY: SARCOMA): active; positive | carcinogen call (Species: MOUSE, Strain/Sex: STRAIN-A/MALE,FEMALE, Route: INTRAPERITONEAL, Dose: 40, 100, 200 MG/KG IN TRICAPRYLIN, Dose: 40, 100, 200 MG/KG IN TRICAPRYLIN, Tumor Site: Type of Lesion: LUNG: ADENOMA): active; positive | carcinogen call (Species: RAT, Strain/Sex: SPRAGUE-DAWLEY/FEMALE, Route: INTRAPERITONEAL, Dose: 0, 5, 10 MG/KG 3/WK FOR 52 WKS, Dose: 0, 5, 10 MG/KG 3/WK FOR 52 WKS, Tumor Site: Type of Lesion: PERITONEAL CAVITY: SARCOMA): active; positive | carcinogen call (Species: RAT, Strain/Sex: SPRAGUE-DAWLEY/MALE, Route: INTRAPERITONEAL, Dose: 0, 5, 10 MG/KG 3/WK FOR 52 WK, Dose: 0, 5, 10 MG/KG 3/WK FOR 52 WK, Tumor Site: Type of Lesion: PERITONEAL CAVITY: SARCOMA): active; positive

CCC(=O)Oc1ccc(/C(CC)=C(\CC)c2ccc(OC(=O)CC)cc2)cc1
carcinogen call (Species: RAT, Route: SUBCUTANEOUS, Tumor Site: Type of Lesion: PITUITARY GLAND): active; positive

CN(C)c1ccc(C(c2ccccc2)c2ccc(N(C)C)cc2)cc1
carcinogen call (Species: MOUSE, Strain/Sex: B6C3F1/FEMALE, Route: ORAL (DIET), Dose: 0, 91, 204, 408 PPM IN DIET FOR 2 YRS, Dose: 0, 91, 204, 408 PPM IN DIET FOR 2 YRS, Tumor Site: Type of Lesion: LIVER: HEPATOCELLULAR ADENOMA OR CARCINOMA): active; positive; incidence of tumors was statistically significant | carcinogen call (Species: RAT, Strain/Sex: F344/N/FEMALE, Route: DIET, Dose: 0, 91, 272, 543 PPM IN DIET FOR 2 YRS, Dose: 0, 91, 272, 543 PPM IN DIET FOR 2 YRS, Tumor Site: Type of Lesion: LIVER: HEPATOCELLULAR ADENOMA, THYROID: FOLLICULAR CELL ADENOMA OR CARCINOMA): equivocal; none of the tumor incidences reached statistical significance; for th | carcinogen call (Species: RAT, Strain/Sex: F344/N/MALE, Route: ORAL (DIET), Dose: 0, 91, 272, 543 PPM IN DIET FOR 2 YRS, Dose: 0, 91, 272, 543 PPM IN DIET FOR 2 YRS, Tumor Site: Type of Lesion: TESTIS: INTERSTITIAL CELL ADENOMA, THYROID: FOLLICULAR CELL ADENOMA OR CARCINOMA): equivocal; thyroid tumors did not reach statistical significance

O[C@H]1C=C2c3c(cccc3[C@@H]1O)-c1ccc3ccccc3c12
carcinogen call (Species: MOUSE, Strain/Sex: CD-1/FEMALE, Route: INTRAPERITONEAL, Dose: 0, 0.275, 1.1 UMOL (TOTAL DOSE) ADMINISTERED OVER DAYS 1, 8, AND 15 OF LIFE (STUDY DURATION: 52 WEEKS), Dose: 0, 0.275, 1.1 UMOL (TOTAL DOSE) ADMINISTERED OVER DAYS 1, 8, AND 15 OF LIFE (STUDY DURATION: 52 WEEKS), Tumor Site: Type of Lesion: LUNG: ALVEOLAR/BRONCHIOLAR CARCINOMA): active; positive | carcinogen call (Species: MOUSE, Strain/Sex: CD-1/MALE, Route: INTRAPERITONEAL, Dose: 0, 0.275, 1.1 UMOL (TOTAL DOSE) ADMINISTERED OVER DAYS 1, 8, AND 15 OF LIFE (STUDY DURATION: 52 WEEKS), Dose: 0, 0.275, 1.1 UMOL (TOTAL DOSE) ADMINISTERED OVER DAYS 1, 8, AND 15 OF LIFE (STUDY DURATION: 52 WEEKS), Tumor Site: Type of Lesion: LUNG: ALVEOLAR/BRONCHIOLAR CARCINOMA, LIVER: ADENOMA OR CARCINOMA): active; positive

CCCCCCCCCc1ccc(OCCO)cc1
carcinogen call (Species: MOUSE, Strain/Sex: B6C3F1/FEMALE, Route: ORAL, Dose: 0, 500, 1500, 4500 PPM IN DIET FOR 104 WK (STUDY DURATION: 104 WK), Dose: 0, 500, 1500, 4500 PPM IN DIET FOR 104 WK (STUDY DURATION: 104 WK)): inactive; negative | carcinogen call (Species: RAT, Strain/Sex: F344/FEMALE, Route: ORAL, Dose: 0, 1000, 3000, 9000 PPM IN DIET FOR 104 WK (STUDY DURATION: 104 WK), Dose: 0, 1000, 3000, 9000 PPM IN DIET FOR 104 WK (STUDY DURATION: 104 WK)): inactive; negative
